The record followed here is patent US20110195911A1, “SYNTHETIC ANALOGS OF THE JUXTAMEMBRANE DOMAIN OF IGF1R AND USES THEREOF” (THE UNITED STATES OF AMERICA,AS REPRESENTED BY THE …, priority 2008, published 2011).

Where a SMILES comes first, the peptide text is derived from it. [ ]: non-standard residue; d: D form. The star is where a group is joined. Palmitoyl = CCCCCCCCCCCCCCCC(=O)*

The GI50 is the concentration giving 50% growth inhibition. Usually TGI stands for the concentration giving total growth inhibition.

This assay has as its system MCF-7 breast cancer cells. Description: MTT cell toxicity assay in MCF-7 breast cancer cells. In kind it is cell-based. Conditions: for GI50 / TGI: final 0.5% FBS, two days with compound; for TGI: concentration of total growth inhibition (cytostatic); for growth inhibition / potency in MCF-7 cells (in words): comparison with related peptides; for improvement of potency: N-terminal truncation, relative to peptide 12/3. As to the method:
Cell Toxicity Assays: MCF-7 (breast cancer), T47D (breast cancer), Colo 205 (colon cancer), JM-1 (rat hepatoma), Sk Me1-2 (melanoma), PLC (human hepatoma), and HepG2 (human hepatoma) cells were obtained from American Type Cell Culture Collection. MCF-7 cells were grown in RPMI medium supplemented with 10% Fetal Bovine Serum. The rest of the cell lines were grown in DMEM medium supplemented with 10% Fetal Bovine Serum.
MTT 43-(4,5-Dimethylthiazol-2-yl)-2,5-diphenyltetrazolium) cell assay was performed using MCF-7 breast cancer cells. For the assay, cells were seeded into 96 well plates in medium containing 1% Fetal Bovine Serum and 100 μL of a cell suspension containing 5000 cells per well. Wells containing medium-only, and wells containing untreated cells, served as controls.
Seeded cells were allowed to attach and grow in the wells for 24 hours. A 5 mM stock solution of each peptide was made by dissolving approximately 1 mg of peptide in appropriate amount of DMSO. 2 mL dilutions were used to make 0.2 μM, 1.0 μM, 5.0 μM, and 10.0 μM concentration solutions of the compounds in serum-free medium. 100 μl, of the resulting 2× solutions were added to the corresponding wells to provide a final FBS concentration of 0.5% and 0.1 μM, 0.5 μM, 2.5 μM, and 5.0 μM dilutions of inhibitors. The cells were incubated with test compounds for two days. The control wells were given 100 μL of medium to ensure maximum similarity to the test wells so that all of the wells had 200 μL of medium during the growth period. An individual plate was made for Time Zero, to which the dye was added at the time of addition of compounds.
An alternative potency assay was used to test compounds in MCF-7 (breast cancer), T47D (breast cancer), Colo 205 (colon cancer), JM-1 (rat hepatoma), Sk MeI-2 (melanoma), PLC (human hepatoma), and HepG2 (human hepatoma) cells. Cells were suspended at a concentration of approximately 5000 cells per 100 μL of suspension in a 5% FBS RPMI medium. The cells were seeded into 96-count wells and incubated over night. After one day's incubation, the 5% FBS medium was aspirated and replaced with 100 μL of no serum RPMI medium containing 1 mg Bovine Serum Albumin (BSA) per 1 mL RPMI. Various concentrations of the test compounds were prepared by dilution in no-serum medium containing 1 mg BSA/mL. 75 μL of the test compound solutions were added to the wells, and the cells were allowed to incubate for 15-20 minutes, after which time 25 μL of human recombinant IGF-1 (Peprotech) solution was added to the wells to attain final concentrations of 10 ng IGF-1/mL medium. The control wells were given 175 μL of no-serum medium in addition to 25 μL of IGF-1 solution. An individual plate was made for time zero, in which the medium was also aspirated and replaced with 175 μL of no-serum medium and 25 μL of IGF-1. 15 μL of MTT dye was added and let incubate for 4 hours, after which time a stop stop solubilization solution was added. The stop solution lysed the cells and released the dye reduced by the remaining living cells. Absorbance of the wells at 544 nm was determined by a FLUOstar/POLARstar Galaxy (BMG Lab Technologies GmbH) microplate reader. The activity was calculated from the data using the formula: 100×[(T−T0)/(C−T0)] for T>T0 and 100×[(T−T0)/T0] for T<T0, wherein T0 corresponds to cell density at the time of drug addition, “T” is the optical density of the test well after a 48-h period of exposure to test drug, and “C” is the control optical density. The GI50 measures the growth inhibitory power of the test agent, and is defined as the concentration of test drug where 100×(T−T0)/(C−T0)=50. The TGI is the concentration of test drug where 100×(T−T0)/(C−T0)=0. Thus, the TGI signifies a cytostatic effect.
In general terms: Tetrazolium assays rely on reduction of a dye to a coloured formazan, in cell work by metabolically active cells.

Turning to `CCCCCCCCCCCCCCCC(=O)N[C@@H](CCCNC(=N)N)C(=O)N[C@@H](CCCCN)C(=O)N[C@@H](CCCNC(=N)N)C(=O)N[C@@H](CC(N)=O)C(=O)N[C@@H](CC(N)=O)C(=O)N[C@@H](CO)C(=O)N[C@@H](CCCNC(=N)N)C(=O)N[C@@H](CC(C)C)C(=O)NCC(=O)N[C@@H](CC(N)=O)C(=O)NCC(=O)N[C@H](C(=O)N[C@@H](CC(C)C)C(=O)N[C@@H](Cc1ccc(O)cc1)C(=O)N[C@@H](C)C(=O)N[C@@H](CO)C(=O)N[C@H](C(=O)N[C@@H](CC(N)=O)C(N)=O)C(C)C)C(C)C` [Peptide 12, Pal-RKRNNSRLGNGVLYASVN-NH2] (Palmitoyl-RKRNNSRLGNGVLYASVN-NH2), where the note is “MCF-7 cells, MTT”, the GI50 stood at 1200 ± 100 nM, the TGI worked out at 2700 ± 300 nM and the “growth inhibition / potency in MCF-7 cells (in words)” value (shortened to “growth inhibition / potency”) is listed as “decreased activity slightly”.

In the case of `CCCCCCCCCCCCCCCC(=O)N[C@@H](CCCCN)C(=O)N[C@@H](CCCNC(=N)N)C(=O)N[C@@H](CC(N)=O)C(=O)N[C@@H](CC(N)=O)C(=O)N[C@@H](CO)C(=O)N[C@@H](CCCNC(=N)N)C(=O)N[C@@H](CC(C)C)C(=O)NCC(=O)N[C@@H](CC(N)=O)C(=O)NCC(=O)N[C@H](C(=O)N[C@@H](CC(C)C)C(=O)N[C@@H](Cc1ccc(O)cc1)C(=O)N[C@@H](C)C(=O)N[C@@H](CO)C(=O)N[C@H](C(=O)N[C@@H](CC(N)=O)C(N)=O)C(C)C)C(C)C` [Peptide 13, Pal-KRNNSRLGNGVLYASVN-NH2] (Palmitoyl-KRNNSRLGNGVLYASVN-NH2), where the note is “MCF-7”, the improvement of potency entry was “more than ten-fold”. Further, the increase in toxicity (MCF-7, relative to peptide 3) is 12.5 fold. Besides, for the setting “MCF-7 cells, MTT”, the GI50 stood at 80 ± 7 nM and the TGI was 500 ± 80 nM.

`CCCCCCCCCCCCCCCC(=O)N[C@@H](CCCNC(=N)N)C(=O)N[C@@H](CC(N)=O)C(=O)N[C@@H](CC(N)=O)C(=O)N[C@@H](CO)C(=O)N[C@@H](CCCNC(=N)N)C(=O)N[C@@H](CC(C)C)C(=O)NCC(=O)N[C@@H](CC(N)=O)C(=O)NCC(=O)N[C@H](C(=O)N[C@@H](CC(C)C)C(=O)N[C@@H](Cc1ccc(O)cc1)C(=O)N[C@@H](C)C(=O)N[C@@H](CO)C(=O)N[C@H](C(=O)N[C@@H](CC(N)=O)C(N)=O)C(C)C)C(C)C` [Peptide 14, Pal-RNNSRLGNGVLYASVN-NH2] (Palmitoyl-RNNSRLGNGVLYASVN-NH2): the improvement of potency result (MCF-7) is listed as “more than ten-fold”. Also, under “MCF-7 cells, MTT”, the GI50 amounted to 100 ± 4 nM and the TGI amounted to 400 ± 20 nM.

Turning to `CCCCCCCCCCCCCCCC(=O)N[C@@H](CC(N)=O)C(=O)N[C@@H](CC(N)=O)C(=O)N[C@@H](CO)C(=O)N[C@@H](CCCNC(=N)N)C(=O)N[C@@H](CC(C)C)C(=O)NCC(=O)N[C@@H](CC(N)=O)C(=O)NCC(=O)N[C@H](C(=O)N[C@@H](CC(C)C)C(=O)N[C@@H](Cc1ccc(O)cc1)C(N)=O)C(C)C` [Peptide 15, Pal-NNSRLGNGVLY-NH2] (Palmitoyl-NNSRLGNGVLY-NH2), under “MCF-7 cells, MTT”, the GI50 came to 100 ± 10 nM, the TGI amounted to 1500 ± 50 nM and the “growth inhibition / potency” value is reported as “gradual reduction in potency”.

With `CCCCCCCCCCCCCCCC(=O)N[C@@H](CCCNC(=N)N)C(=O)N[C@@H](CC(N)=O)C(=O)N[C@@H](CC(N)=O)C(=O)N[C@@H](CO)C(=O)N[C@@H](CCCNC(=N)N)C(=O)N[C@@H](CC(C)C)C(=O)NCC(=O)N[C@@H](CC(N)=O)C(=O)NCC(=O)N[C@H](C(=O)N[C@@H](CC(C)C)C(=O)N[C@@H](Cc1ccc(O)cc1)C(N)=O)C(C)C` [Peptide 16, Pal-RNNSRLGNGVLY-NH2] (Palmitoyl-RNNSRLGNGVLY-NH2), for the setting “MCF-7 cells, MTT”, the GI50 came to 70 ± 5 nM, the TGI amounted to 500 ± 20 nM and the “growth inhibition / potency” value is listed as “most potent derivative”.

As to `CCCCCCCCCCCCCCCC(=O)N[C@@H](CC(N)=O)C(=O)N[C@@H](CO)C(=O)N[C@@H](CCCNC(=N)N)C(=O)N[C@@H](CC(C)C)C(=O)NCC(=O)N[C@@H](CC(N)=O)C(=O)NCC(=O)N[C@H](C(=O)N[C@@H](CC(C)C)C(=O)N[C@@H](Cc1ccc(O)cc1)C(N)=O)C(C)C` [Peptide 17, Pal-NSRLGNGVLY-NH2] (Palmitoyl-NSRLGNGVLY-NH2), where the note is “MCF-7 cells, MTT”, the GI50 stood at 200 ± 10 nM, the TGI came out at 1500 ± 100 nM and the “growth inhibition / potency” value is listed as “gradual reduction in potency”.

For the compound `CCCCCCCCCCCCCCCC(=O)N[C@@H](CO)C(=O)N[C@@H](CCCNC(=N)N)C(=O)N[C@@H](CC(C)C)C(=O)NCC(=O)N[C@@H](CC(N)=O)C(=O)NCC(=O)N[C@H](C(=O)N[C@@H](CC(C)C)C(=O)N[C@@H](Cc1ccc(O)cc1)C(N)=O)C(C)C` [Peptide 19, Pal-SRLGNGVLY-NH2] (Palmitoyl-SRLGNGVLY-NH2), where the note is “MCF-7 cells, MTT”, the GI50 was found to be 150 ± 50 nM, the TGI was 2000 ± 100 nM and the “growth inhibition / potency” value is “gradual reduction in potency”.

Take `CCCCCCCCCCCCCCCC(=O)N[C@@H](CCCNC(=N)N)C(=O)N[C@@H](CC(C)C)C(=O)NCC(=O)N[C@@H](CC(N)=O)C(=O)NCC(=O)N[C@H](C(=O)N[C@@H](CC(C)C)C(=O)N[C@@H](Cc1ccc(O)cc1)C(N)=O)C(C)C` [Peptide 20, Pal-RLGNGVLY-NH2] (Palmitoyl-RLGNGVLY-NH2): where the note is “MCF-7 cells, MTT”, the GI50 was determined as 200 ± 6 nM, the TGI was more than 5000 nM and the “growth inhibition / potency” value is listed as “gradual reduction in potency”.

Turning to `CCCCCCCCCCCCCCCC(=O)N[C@@H](C(=O)N[C@H](CO)C(=O)N[C@H](C)C(=O)N[C@H](Cc1ccc(O)cc1)C(=O)N[C@H](CC(C)C)C(=O)N[C@@H](C(=O)NCC(=O)N[C@H](CC(N)=O)C(=O)NCC(=O)N[C@H](CC(C)C)C(=O)N[C@H](CCCNC(=N)N)C(=O)N[C@H](CO)C(=O)N[C@H](CC(N)=O)C(=O)N[C@H](CC(N)=O)C(=O)N[C@H](CCCNC(=N)N)C(N)=O)C(C)C)C(C)C` [Peptide 21, Pal-VSAYLVGNGLRSNNR-NH2] (Palmitoyl-[dV][dS][dA][dY][dL][dV]G[dN]G[dL][dR][dS][dN][dN][dR]-NH2), under “MCF-7 cells, MTT”, the TGI was found to be 100 ± 5 nM and the “growth inhibition / potency” value is recorded as “did not improve or diminish the inhibitory activity”.

`CCCCCCCCCCCCCCCC(=O)N[C@H](Cc1ccc(O)cc1)C(=O)N[C@H](CC(C)C)C(=O)N[C@@H](C(=O)NCC(=O)N[C@H](CC(N)=O)C(=O)NCC(=O)N[C@H](CC(C)C)C(=O)N[C@H](CCCNC(=N)N)C(=O)N[C@H](CO)C(=O)N[C@H](CC(N)=O)C(=O)N[C@H](CC(N)=O)C(=O)N[C@H](CCCNC(=N)N)C(N)=O)C(C)C` [Peptide 22, Pal-YLVGNGLRSNNR-NH2] (Palmitoyl-[dY][dL][dV]G[dN]G[dL][dR][dS][dN][dN][dR]-NH2): where the note is “MCF-7 cells, MTT”, the “cell killing activity (in words)” value is listed as “enhanced cell killing activity”, the TGI was 500 ± 25 nM and the “growth inhibition / potency” value is “equipotent to peptide 18”.

As to `CCCCCCCCCCCCCCCC(=O)N[C@@H](Cc1c[nH]cn1)C(=O)N[C@@H](CCCNC(=N)N)C(=O)N[C@@H](CCCCN)C(=O)N[C@@H](CCCNC(=N)N)C(=O)N[C@@H](CC(N)=O)C(=O)N[C@@H](CC(N)=O)C(=O)N[C@@H](CO)C(=O)N[C@@H](CCCNC(=N)N)C(=O)N[C@@H](CC(C)C)C(=O)NCC(=O)N[C@@H](CC(N)=O)C(=O)NCC(=O)N[C@H](C(=O)N[C@@H](CC(C)C)C(=O)N[C@@H](Cc1ccc(O)cc1)C(=O)N[C@@H](C)C(=O)N[C@@H](CO)C(=O)N[C@H](C(=O)N[C@@H](CC(N)=O)C(=O)N1CCC[C@H]1C(N)=O)C(C)C)C(C)C` [Peptide 23] (Palmitoyl-HRKRNNSRLGNGVLYASVNP-NH2), for the setting “MCF-7 cells, MTT”, the GI50 stood at 100 ± 50 nM, the TGI was more than 5000 nM and the “growth inhibition / potency” value is listed as “increased the potency”.
